Data taken from US20190051326A1, “Ionic Liquid, Lubricant, and Magnetic Recording Medium” (priority 2016, published 2019).

Columns and labels:
[1] = Thermal stability, TG/DTA measurement; conditions: for Weight reduction temperature 5% / Weight reduction temperature 10% / Weight reduction temperature 20%: air 200 mL/min, 30° C. to 600° C., heating rate 10° C./min; for thermal stability higher compared to Z-DOL (Comparative Example 10C) / thermal stability higher compared to Z-TETRAOL (Comparative Example 11C): difference of weight reduction temperatures
[2] = in acetonitrile; cited from earlier work
[3] = Solubility to fluorine-based solvent (Vertrel XF), 1.0/0.5/0.1 parts by mass added; conditions: Vertrel XF [CF3(CHF)2CF2CF3], 25° C., ultrasonic waves 5 minutes, left 1 day, visual observation; 0.5 and 0.1 parts by mass per 100 parts
Procedure: Then, the resultant was left to stand for 1 day and solubility thereof was visually observed.
Then, the resultant was left to stand for 1 day and solubility thereof was visually observed, followed by evaluation based on the following evaluation criteria.
[Evaluation Criteria] • 0.5% by mass or more:
When 0.5 parts by mass of the ionic liquid was added, dissolution was found. • 0.1% by mass or more but less than 0.5% by mass:
When 0.5 parts by mass of the ionic liquid was added, no dissolution was found. However, when 0.1 parts by mass of the ionic liquid was added, dissolution was found. • Less than 0.1% by mass:
When 0.5 parts by mass of the ionic liquid was added, no dissolution was found. Moreover, when 0.1 parts by mass of the ionic liquid was added, no dissolution was found.

[4] = Solubility to solvents (Vertrel XF, n-hexane, ethanol); type: physicochemical; conditions: 25° C., visual observation after 1 day; for Solubility Fluorine-based solvent: Vertrel XF, 0.2 parts by mass per 100 parts; for Solubility Ethanol / Solubility n-Hexane: 0.5 parts by mass per 100 parts
Procedure: To a predetermined mass of Vertrel XF, n-hexane, or ethanol, each of the ionic liquids was added and was irradiated with ultrasonic waves for 5 minutes. Then, the resultant was left to stand for 1 day and solubility thereof was visually observed.
Specifically, to 100 parts by mass of Vertrel XF (25° C.), 0.2 parts by mass of the ionic liquid was added and was irradiated with ultrasonic waves for 5 minutes. Then, the resultant was left to stand for 1 day and solubility thereof was visually observed, followed by evaluation based on the following evaluation criteria. In the cases of n-hexane and ethanol, each of the ionic liquids (0.5 parts by mass) was added to 100 parts by mass of n-hexane or ethanol at 25° C. The resultant was irradiated with ultrasonic waves for 5 minutes. Then, the resultant was left to stand for 1 day and solubility thereof was visually observed, followed by evaluation based on the following evaluation criteria.
<<Vertrel XF>> • 0.2% by mass or more:
When 0.2 parts by mass of the ionic liquid was added, dissolution was found. • Less than 0.2% by mass:
When 0.2 parts by mass of the ionic liquid was added, no dissolution was found.
<<n-Hexane and Ethanol>> • 0.5% by mass or more:
When 0.5 parts by mass of the ionic liquid was added, dissolution was found. • Less than 0.5% by mass:

Molecule	Weight reduction temperature 5% [1] [°C]	Weight reduction temperature 10% [1] [°C]	Weight reduction temperature 20% [1] [°C]	other results
CCCCCCCCCCCCCCCCCC[n+]1ccn(CCCO)c1CCCCCCCCCCCCCCCCC.O=S(=O)([N-]S(=O)(=O)C(F)(F)C(F)(F)C(F)(F)C(F)(F)F)C(F)(F)C(F)(F)C(F)(F)C(F)(F)F [Example 8A, bis(nonafluorobutanesulfonyl)imide-1-3′hydroxypropyl-2-heptadecyl-3-octadecylimidazolium]	327.8	364.3	398.8	–
CCCCCCCCCCCCCC[N+](C)(C)CCCO.O=S(=O)([N-]S(=O)(=O)C(F)(F)C(F)(F)C(F)(F)C(F)(F)F)C(F)(F)C(F)(F)C(F)(F)C(F)(F)F	–	–	–	thermal stability higher compared to Z-DOL (Comparative Example 10C) [1]: ≥ 145 °C; thermal stability higher compared to Z-TETRAOL (Comparative Example 11C) [1]: ≥ 90 °C
CCCCCCCCCCCCCCCCCCC1CCCCN2CCC[N+](CCCO)=C12.O=S(=O)([N-]S(=O)(=O)C(F)(F)C(F)(F)C(F)(F)C(F)(F)F)C(F)(F)C(F)(F)C(F)(F)C(F)(F)F (stereo not shown) [Example 5A, bis(nonafluorobutanesulfonyl)imide-6-octadecyl-8-3′-hydroxypropyl-1,8-diazabicyclo[5.4 0.0]-7-undecenium]	326.2	360.8	387.7	thermal stability higher compared to Z-DOL (Comparative Example 10C) [1]: ≥ 160 °C; thermal stability higher compared to Z-TETRAOL (Comparative Example 11C) [1]: ≥ 85 °C
O=S(=O)(C(S(=O)(=O)C(F)(F)F)S(=O)(=O)C(F)(F)F)C(F)(F)F [(CF3SO2)3CH]	–	–	–	pKa [2]: −3.7
F[B-](F)(F)F.[H+] [tetrafluoroboric acid]	–	–	–	pKa [2]: 1.8
nonafluorobutanesulfonic acid-1-octadecylimidazolium	349.3	375.0	397.5	–
CCCCCCCCCCCCCCCCCC[n+]1ccn(CCCC)c1.O=S1(=O)[N-]S(=O)(=O)C(F)(F)C(F)(F)C1(F)F [Comparative Example 2A, hexafluorocyclopropane-1,3-bis(sulfonyl)imide-1-butyl-3-n-octadecylimidazolium, reference compound]	347.2	367.0	387.8	Fluorine-based solvent solubility [3]: Less than 0.1% by % by mass
O=S(=O)(NS(=O)(=O)C(F)(F)C(F)(F)C(F)(F)C(F)(F)F)C(F)(F)C(F)(F)C(F)(F)C(F)(F)F [bis(nonafluorobutanesulfonyl)imide]	–	–	–	pKa [2]: 0.0
CCCCCCCCCCCCCCCCCC[n+]1ccn(CCCO)c1.O=S(=O)([N-]S(=O)(=O)C(F)(F)C(F)(F)C(F)(F)C(F)(F)F)C(F)(F)C(F)(F)C(F)(F)C(F)(F)F	–	–	–	thermal stability higher compared to Z-DOL (Comparative Example 10C) [1]: ≥ 150 °C; thermal stability higher compared to Z-TETRAOL (Comparative Example 11C) [1]: ≥ 90 °C
CCCCCCCCCCCCCCCCCC[N+]1(CCCO)CCCC1.O=S(=O)([N-]S(=O)(=O)C(F)(F)C(F)(F)C(F)(F)C(F)(F)F)C(F)(F)C(F)(F)C(F)(F)C(F)(F)F	–	–	–	thermal stability higher compared to Z-DOL (Comparative Example 10C) [1]: ≥ 160 °C; thermal stability higher compared to Z-TETRAOL (Comparative Example 11C) [1]: ≥ 100 °C
pentadecafluorooctanoic acid octadecylammonium [pentadecafluorooctanoic acid octadecylammonium]	206.9	215.8	223.4	–
CCCCCCCCCCCCCC[N+](C)(C)CCCO.O=S(=O)([N-]S(=O)(=O)C(F)(F)C(F)(F)C(F)(F)C(F)(F)F)C(F)(F)C(F)(F)C(F)(F)C(F)(F)F [Example 9A, bis(nonafluorobutanesulfonyl)imide-N-3′hydroxypropyl-N,N-dimethyltetradecylammonium]	340.0	359.0	375.0	–
CCCCCCCCCCCCCCCCCCN.O=S(=O)(NS(=O)(=O)C(F)(F)C(F)(F)C(F)(F)C(F)(F)F)C(F)(F)C(F)(F)C(F)(F)C(F)(F)F [Comparative Example 8A, bis(nonafluorobutanesulfonyl)imide-octadecylammonium, reference compound]	311.8	329.8	348.0	Solubility Fluorine-based solvent [4]: Less than 0.2% by mass; Solubility Ethanol [4]: ≥ 0.5% by mass; Solubility n-Hexane [4]: < 0.5% by mass
CCCCCCCCCCCCCCCCCC[N+](C)(C)CCCO.O=S(=O)([N-]S(=O)(=O)C(F)(F)C(F)(F)C(F)(F)C(F)(F)F)C(F)(F)C(F)(F)C(F)(F)C(F)(F)F	–	–	–	thermal stability higher compared to Z-DOL (Comparative Example 10C) [1]: ≥ 150 °C; thermal stability higher compared to Z-TETRAOL (Comparative Example 11C) [1]: ≥ 90 °C
CCCCCCCCCCCCCCCCCCn1ccnc1CCCCCCCCCCCCCCCCC.O=S1(=O)NS(=O)(=O)C(F)(F)C(F)(F)C1(F)F [Comparative Example 7A, hexafluorocyclopropane-1,3-bis(sulfonyl)imide-1-octadecyl-2-heptadecylimidazolium, reference compound]	303.7	366.4	405.0	Solubility Fluorine-based solvent [4]: Less than 0.2% by mass; Solubility Ethanol [4]: ≥ 0.5% by mass; Solubility n-Hexane [4]: < 0.5% by mass
bis(nonafluorobutanesulfonyl)imide-1-dodecyl-2-undecyl-3-3′hydroxypropyloctadecylimidazolium [Example 7A]	350.9	373.7	394.8	–
heptadecafluorooctanesulfonic acid-6-octadecyl-1,8-diazabicyclo[5.4.0]-7-undecenium	361.9	382.7	403.5	–
heptadecafluorooctanesulfonic acid-6-octadecyl-1,8-diazabicyclo[5.4.0]-7-undecenium [Comparative Example 3A]	–	–	–	Fluorine-based solvent solubility [3]: Less than 0.1% by % by mass
nonafluorobutanesulfonic acid-N,N,N-trimethyloctadecylammonium [Comparative Example 9A, reference compound]	340.5	356.2	371.9	–
CCCCCCCCCCCCCCCCCC[n+]1ccn(CCCO)c1.O=S(=O)([N-]S(=O)(=O)C(F)(F)C(F)(F)C(F)(F)C(F)(F)F)C(F)(F)C(F)(F)C(F)(F)C(F)(F)F [Example 2A, bis(nonafluorobutanesulfonyl)imide1-3′hydroxypropyl-3-octadecylimidazolium]	327.7	361.7	389.3	–
CCCCCCCCCCCCCCCCCC[n+]1ccn(CCCO)c1CCCCCCCCCCCCCCCCC.O=S(=O)([N-]S(=O)(=O)C(F)(F)C(F)(F)C(F)(F)C(F)(F)F)C(F)(F)C(F)(F)C(F)(F)C(F)(F)F	–	–	–	thermal stability higher compared to Z-DOL (Comparative Example 10C) [1]: ≥ 160 °C; thermal stability higher compared to Z-TETRAOL (Comparative Example 11C) [1]: ≥ 85 °C
O=S1(=O)NS(=O)(=O)C(F)(F)C(F)(F)C1(F)F [hexafluorocyclopropane-1,3-bis(sulfonyl)imide]	–	–	–	pKa [2]: −0.8
nonafluorobutanesulfonic acid-1-octadecyl-2-heptadecylimidazolium	338.2	365.9	390.1	–
CCCCCCCCCCCCCCCCCC[N+](C)(C)CCCO.O=S(=O)([N-]S(=O)(=O)C(F)(F)C(F)(F)C(F)(F)C(F)(F)F)C(F)(F)C(F)(F)C(F)(F)C(F)(F)F [Example 10A, bis(nonafluorobutanesulfonyl)imide-N-3′hydroxypropyl-N,N-dimethyloctadecylammonium]	336.5	359.4	376.6	–
CCCCCCCCCCCCCCCCCC[N+]1(CCCO)CCCC1.O=S(=O)([N-]S(=O)(=O)C(F)(F)C(F)(F)C(F)(F)C(F)(F)F)C(F)(F)C(F)(F)C(F)(F)C(F)(F)F [Example 3A, bis(nonafluorobutanesulfonyl)imide-N-3′hydroxypropyl-N-octadecylpyrrolidinium]	349.8	370.8	387.6	–
perfluorocyclopropane sulfoimide	–	–	–	pKa [2]: −0.8
